{"source": "patent US20170223976A1", "about": "“MODIFIED MILK POWDER CONTAINING 1,5-ANHYDRO-D-GLUCITOL” (NIHON STARCH CO., LTD., priority 2015, published 2017)", "key": {"[1]": {"tested_on": "PSG-1 gene", "experiment": "PSG-1 gene expression in intestinal tract cells (Caco-2), real-time RT-PCR", "format": "cell-based", "conditions": "Caco-2 cells; for expression level of PSG-1 gene relative to non-added section: 3 days", "description": "PSG-1 is a gene which is expressed in placental cells in large quantities in pregnancy. The influence of 1,5-AG upon the expression of PSG-1 in intestinal tract cells which is not connected with pregnancy was investigated.\nA test was carried out at five concentrations (1.6, 8, 40, 200 and 1,000 μg/mL) of 1,5-AG. Stated more specifically, a 1,5-AG aqueous solution having a concentration of 100 mg/mL was diluted with water to prepare 100 times-concentrated solutions having concentrations of 0.16, 0.8, 4, 20 and 100 mg/mL. These 100 times-concentrated solutions were each added to a medium in a ratio of 1/100 to achieve final concentrations of […] and sterilized with a filter to be used in the test. As a negative control, water was added to a medium in a ratio of 1/100 and sterilized with a filter to be used in the test.\nA medium was used to adjust Caco-2 cells to a concentration of 1×10^5 cells/0.3 mL/well, and the cells were scattered on a 48-well plate to be cultured in a CO2 incubator (5% CO2, 37° C.) for 14 days (medium was exchanged every other day). After culture, it was confirmed that the cells were differentiated into intestinal epidermoid cells, the medium was replaced by a sample-containing test medium and a control-containing test medium to culture the cells in a CO2 incubator for 3 days, and total RNA was extracted from the cells to analyze the expression level of PSG-1 gene. These procedures were repeated five times each.\nTotal RNA was extracted by using the FastLane Cell cDNA kit. […]\nThe synthesis of cDNA was carried out by using the QuantiTect reverse transcription kit. […]\nReal-time PCT was carried out by an intercalator method using SYBR Green I. Stated more specifically, a total of an 8 μL system consisting of 1 μL of synthesized cDNA, 2.6 μL of dsH2O, 4 μL of SYBR Premix ExTag, 0.2 μL of Forward primer (5 μM) and 0.2 μL of Reverse primer (5 μM) was used. […] The relative expression level was calculated by the ? […]"}, "[2]": {"conditions": "cited from earlier work"}, "[3]": {"tested_on": "type 2 diabetes model", "conditions": "in vivo; cited from earlier work"}, "[4]": {"conditions": "excessive amount of 1,5-AG taken as food"}}, "data": [{"smiles": "OC[C@H]1OC[C@H](O)[C@@H](O)[C@@H]1O", "note": "[1,5-AG, 1,5-anhydro-D-glucitol]", "values": [{"measurement": "expression level of PSG-1 gene relative to non-added section", "setting": "[1]; 8 μg/mL", "result": 1.31, "unit": "times"}, {"measurement": "expression level of PSG-1 gene relative to non-added section", "setting": "[1]; 40 μg/mL", "result": 1.34, "unit": "times"}, {"measurement": "average expression level of PSG-1 gene versus non-added section", "setting": "[1]; 3 days, 1,5-AG added section", "result": "tends to become higher"}, {"measurement": "temporary rise of the concentration of 1,5-AG in the blood", "setting": "[2]; [4]", "result": "about 100 times"}, {"measurement": "time for the 1,5-AG level in the blood to return to the original level", "setting": "[2]; [4]", "result": "about 24 hours"}, {"measurement": "time for the 1,5-AG level in the blood to return to the original value", "setting": "[2]; ingested temporarily, for example 20 g, eliminated through urine", "result": "about 24 hours"}, {"measurement": "anti-diabetic effect", "setting": "[3]", "result": "anti-diabetic effect"}]}]}
